We go through 1 molecule from patent US8399440B2, “Disease modifying anti-arthritic activity of 2-methoxyestradiol” (EntreMed, Inc., priority 2006, dated 2013).

The structures appear in SMILES notation.

This data set deals with Arthrogen Collagen MAb-Induced Arthritis. Nature of the data set: Arthrogen collagen MAb-induced arthritis (Arthrogen-CIA model of RA). Particulars: Study SMP05-046; either drug alone (2ME2 10 or 100 mg/kg/d PO; MTX 0.1 or 1 mg/kg/d IP). Format: in vivo, Mouse (Balb/C).

Take `CN(Cc1cnc2nc(N)nc(N)c2n1)c1ccc(C(=O)N[C@@H](CCC(=O)O)C(=O)O)cc1` [MTX, methotrexate, reference compound]: the “pathology in the liver” value is “No pathology”.
